Key:
[1] = tested on: FGF signaling (Tg(Dusp6:dsEGFP) reporter); assay: Dose response of GFP expression in Tg(Dusp6:dsEGFP) embryos, automated imaging; format: in vivo, zebrafish; conditions: Danio rerio; treated at 24 hpf, 6 hours; read-out: EC50, GFP expression in transgenic embryos
Description: We tested a series of structurally related analogs of BCI in an in vivo assay. As described in Molina et al. (Nature Chemical Biology, 2009), Tg(Dusp6:dsEGFP) embryos were treated at 24 hours post fertilization with increasing doses of compounds. After 6 hours treatment, embryos were imaged by the IXU ImageXpress (Molecular Devices), and images were processed by Definiens Software. The software identified bright head structures and measured fluorescence.
Under similar conditions, BCI-related analogs were tested and EC50 values measured.

Spry4 = assay: Zebrafish mRNA microinjection, rescue of sef expression, spry4; format: in vivo; conditions: 5 μM BCI, shield stage
Description: (§1) dusp6 and XFD mRNA for microinjection studies were generated as previously described (Tsang, M. et al. Development 131, 2769-79 (2004)). Both Dusp5 and Spry4 ORFs were amplified by RT-PCR from 24 hpf zebrafish with the following primers: […]
(§2) Amplified PCR products were subcloned into pCS2+, sequenced verified and mRNAs were synthesized as described previously. Embryos were injected with 500 pg mRNA at the 1-2 cell stage, treated with 5 μM BCI at the 1000-cell stage and fixed at shield stage for in situ hybridization.
(§3) In situ hybridization experiments were carried out as described previously (Kudoh, T. et al. Genome Res 11, 1979-87 (2001)). The probes eng3, krox20, sef, dusp6, gata4, nkx2.5, cmlc2, vmhc, scl, etsrp and hand2 were generated with a RNA labeling kit (Roche) (Tsang, M. et al. Development 131, 2769-79 (2004); Chen, J. N. et al. Development 122, 3809-16 (1996); Ekker, M., et al. Development 116, 1001-10 (1992); Liao, E. C. et al. Genes Dev 12, 621-6 (1998); Oxtoby, E. et al. Nucleic Acids Res 21, 1087-95 (1993); Pham, V. N. et al. Dev Biol 303, 772-83 (2007); Tsang, M., et al. Nat Cell Biol 4, 165-9 (2002); Yelon, D., et al. Dev Biol 214, 23-37 (1999); and Yelon, D. et al. Development 127, 2573-82 (2000)). The double fluorescent in situ hybridization protocol was described by Schoenbeck et al. (Dev Cell 13, 254-67 (2007)). […]

Dusp6 = target: T1, Dusp6 (Danio rerio, UniProt Q7T2L8); assay: Zebrafish mRNA microinjection, rescue of sef expression, dusp6; format: in vivo; conditions: 5 μM BCI, shield stage
T1 construct: expressed in transfected cells; host or cells: zebrafish embryos, 500 pg mRNA injected at the 1-2 cell stage
T1 sequence (Q7T2L8 1-382): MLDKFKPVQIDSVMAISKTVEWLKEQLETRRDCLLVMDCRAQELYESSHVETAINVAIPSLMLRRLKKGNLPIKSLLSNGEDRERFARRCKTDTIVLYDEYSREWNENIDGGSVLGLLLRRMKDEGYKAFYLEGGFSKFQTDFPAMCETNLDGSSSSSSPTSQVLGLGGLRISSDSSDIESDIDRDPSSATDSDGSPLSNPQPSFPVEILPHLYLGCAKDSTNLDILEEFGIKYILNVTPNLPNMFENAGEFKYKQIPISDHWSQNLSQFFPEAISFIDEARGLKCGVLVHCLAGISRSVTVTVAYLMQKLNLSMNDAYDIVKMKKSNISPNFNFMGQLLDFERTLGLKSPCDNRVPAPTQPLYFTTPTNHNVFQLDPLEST
Description: as §1, §2, §3

PTP1B = target: T2, PTP1B (Homo sapiens, UniProt P18031); assay: OMFP phosphatase assay, PTP1B; format: biochemical; conditions: n=3, OMFP substrate, 15.2 nM-300 μM; read-out: mean in vitro values, PTP1B
T2 sequence (P18031 1-435): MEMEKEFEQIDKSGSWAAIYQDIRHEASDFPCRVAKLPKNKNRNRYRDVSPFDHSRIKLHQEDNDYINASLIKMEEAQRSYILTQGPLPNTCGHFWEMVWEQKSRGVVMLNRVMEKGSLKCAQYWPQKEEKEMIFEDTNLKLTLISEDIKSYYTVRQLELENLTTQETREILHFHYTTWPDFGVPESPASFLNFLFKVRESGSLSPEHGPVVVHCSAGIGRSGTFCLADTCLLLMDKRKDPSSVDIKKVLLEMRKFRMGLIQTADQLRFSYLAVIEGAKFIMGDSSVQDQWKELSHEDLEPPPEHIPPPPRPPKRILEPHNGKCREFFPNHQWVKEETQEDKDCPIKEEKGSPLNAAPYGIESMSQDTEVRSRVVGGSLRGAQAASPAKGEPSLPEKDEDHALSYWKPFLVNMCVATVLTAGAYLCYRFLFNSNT
Description: Enzyme activities in the presence or absence of BCI were measured using the artificial substrate […] at concentrations equal to the Km of each enzyme (Cdc25B, PTP1B & Dusp3/VHR) and at optimal pH for individual enzyme activity in a 96-well microtiter plate assay based on previously described methods by Lazo et al. (J Med Chem 44, 4042-9 (2001) and Lazo, J. S. et al. Bioorg Med Chem 14, 5643-50 (2006)). Briefly, the standard assay conditions contained 0.02 mg/ml OMFP in assay buffer (30 mM Tris-HCl (pH8.0), 75 mM NaCl, 1 mM EDTA, 0.33% BSA and 1 mM DTT). Fluorescence emission was measured after a sixty-minute incubation period at ambient temperature using a multiwell plate reader (SpectraMax m5, […]; excitation 485 nm, emission 525 nm). Sodium orthovanadate (100 μM) was used as a positive control for full phosphatase inhibition. IC50 concentrations were determined from three experiments using 10 concentrations of BCI ranging from 300 μM to 15.2 nM and GraphPad Prism 5.0 software.

## O=C1/C(=C/c2ccccc2)C(NC2CCCCC2)c2ccccc21 (stereo not shown) [Compound 3, (E)-2-benzylidene-3-(cyclohexylamino)-2,3-dihydro-1H-inden-1-one]
[1]
  EC50: 11.4 µM
Spry4
  reversal of effects of spry4 mRNA on sef expression: did not reverse
Dusp6
  sef expression in dusp6-injected embryos: rescued sef expression to control levels or higher
PTP1B
  IC50: > 300 µM
